Test results published in patent US12435044B2, “Pyridazinone herbicides and pyridazinone intermediates used to prepare a herbicide” (FMC Corporation, priority 2018, dated 2025).

Tests used:
Assay type in all cases: in vivo
[1] = test system: blackgrass (Alopecurus myosuroides); assay: Test C pre-/postemergence greenhouse test; details: scale 0 to 100
Summary of the method: (§1)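 Test chemicals in a non-phytotoxic solvent mixture with surfactant; preemergence on seeds sown in silt loam, postemergence on plants 2–18 cm tall (1- to 4-leaf stage) in peat/vermiculite medium. Greenhouse for 13–21 d, then visual rating against untreated controls, 0 (no effect) to 100 (complete control).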

[2] = test system: foxtail, giant (Setaria faberii); assay: Test C pre-/postemergence greenhouse test; details: scale 0 to 100
Summary of the method: as §1

[3] = test system: galium (catchweed bedstraw, Galium aparine); assay: Test C pre-/postemergence greenhouse test; details: scale 0 to 100
Summary of the method: as §1

[4] = test system: kochia (Kochia scoparia); assay: Test C pre-/postemergence greenhouse test; details: Postemergence, scale 0 to 100
Summary of the method: as §1

[5] = test system: lambsquarters (Chenopodium album); assay: Test C pre-/postemergence greenhouse test; details: scale 0 to 100
Summary of the method: as §1

[6] = test system: morningglory (Ipomoea coccinea); assay: Test C pre-/postemergence greenhouse test; details: scale 0 to 100
Summary of the method: as §1

[7] = test system: oat, wild (Avena fatua); assay: Test C pre-/postemergence greenhouse test; details: Postemergence, scale 0 to 100
Summary of the method: as §1

[8] = test system: soybean (Glycine max); assay: Test C pre-/postemergence greenhouse test; details: scale 0 to 100
Summary of the method: as §1

[9] = test system: waterhemp (common waterhemp, Amaranthus rudis); assay: Test C pre-/postemergence greenhouse test; details: scale 0 to 100
Summary of the method: as §1

[10] = test system: chickweed (common chickweed, Stellaria media); assay: Test C postemergence greenhouse test; details: scale 0 to 100
Excerpt: Seeds of plant species selected from blackgrass (Alopecurus myosuroides), ryegrass, Italian (Lolium multiflorum), wheat, winter (winter wheat, Triticum aestivum), galium (catchweed bedstraw, Galium aparine), corn (Zea mays), crabgrass, large (Digitaria sanguinalis), foxtail, giant (Setaria faberii), johnsongrass (Sorghum halepense), lambsquarters (Chenopodium album), morningglory (Ipomoea coccinea), nutsedge, yellow (Cyperus esculentus), pigweed (Amaranthus retroflexus), ragweed (common ragweed, Ambrosia elatior), soybean (Glycine max), barnyardgrass (Echinochloa crus-galli), oilseed rape (Brassica napus), waterhemp (common waterhemp, Amaranthus rudis), pigweed, palmer (Amaranthus palmeri), kochia (Kochia scoparia), oat, wild (Avena fatua), surinam grass (Brachiaria decumbens), windgrass (Apera spica-venti), poinsettia, wild (Euphorbia heterophylla) and velvetleaf (Abutilon theophrasti) were planted into a silt loam soil and treated preemergence with test chemicals formulated in a non-phytotoxic solvent mixture which included a surfactant.
At the same time, plants selected from these crop and weed species and also chickweed (common chickweed, Stellaria media), buckwheat, wild (Polygonum convolvulus), mustard, wild (Sinapis arvensis), field poppy (Papaver rhoeas), field violet (Viola arvensis), nightshade (eastern black nightshade, Solanum ptycanthum), speedwell (bird's-eye speedwell, Veronica persica), horseweed (Conyza canadensis), cutleaf geranium (Geranium dissectum), and Canada thistle (Cirsium arvense) were planted in pots containing Redi-Earth® planting medium (Scotts Company, 14111 Scottslawn Road, Marysville, Ohio 43041) comprising spaghnum peat moss, vermiculite, wetting agent and starter nutrients and treated with postemergence applications of test chemicals formulated in the same manner. Plants ranged in height from 2 to 18 cm (1- to 4-leaf stage) for postemergence treatments. Treated plants and controls were maintained in a greenhouse for 13 to 21 d, after which time all species were compared to controls and visually evaluated. Plant response ratings, summarized in Table C-1 (postemergence) and C-2 (preemergence), are based on a scale of 0 to 100 where 0 is no effect and 100 is complete control. A dash (-) response means no test result.

## Cc1ccc2ccc(C)c(-c3c(O)c(Cl)nn(C)c3=O)c2c1 [Cpd. No. 20, 6-chloro-4-(2,7-dimethyl-1-naphthalenyl)-5-hydroxy-2-methyl-3(2H)-pyridazinone]
[1]; Postemergence, 16 g ai/ha
  Plant response rating, Blackgrass: 20
[1]; Postemergence, 31 g ai/ha
  Plant response rating, Blackgrass: 30
[1]; Postemergence, 62 g ai/ha
  Plant response rating, Blackgrass: 40
[1]; Postemergence, 125 g ai/ha
  Plant response rating, Blackgrass: 45
[1]; Preemergence, 31 g ai/ha
  Plant response rating, Blackgrass: 85
[1]; Preemergence, 61 g ai/ha
  Plant response rating, Blackgrass: 20
[1]; Preemergence, 62 g ai/ha
  Plant response rating, Blackgrass: 85
[1]; Preemergence, 125 g ai/ha
  Plant response rating, Blackgrass: 90
[2]; Postemergence, 16 g ai/ha
  Plant response rating, Foxtail, Giant: 70
[2]; Postemergence, 31 g ai/ha
  Plant response rating, Foxtail, Giant: 85
[2]; Postemergence, 62 g ai/ha
  Plant response rating, Foxtail, Giant: 85
[2]; Postemergence, 125 g ai/ha
  Plant response rating, Foxtail, Giant: 95
[2]; Preemergence, 31 g ai/ha
  Plant response rating, Foxtail, Giant: 100
[2]; Preemergence, 61 g ai/ha
  Plant response rating, Foxtail, Giant: 98
[2]; Preemergence, 62 g ai/ha
  Plant response rating, Foxtail, Giant: 100
[2]; Preemergence, 125 g ai/ha
  Plant response rating, Foxtail, Giant: 100
[3]; Postemergence, 16 g ai/ha
  Plant response rating, Galium: 95
[3]; Postemergence, 31 g ai/ha
  Plant response rating, Galium: 95
[3]; Postemergence, 62 g ai/ha
  Plant response rating, Galium: 95
[3]; Postemergence, 125 g ai/ha
  Plant response rating, Galium: 95
[3]; Preemergence, 31 g ai/ha
  Plant response rating, Galium: 100
[3]; Preemergence, 61 g ai/ha
  Plant response rating, Galium: 98
[3]; Preemergence, 62 g ai/ha
  Plant response rating, Galium: 100
[3]; Preemergence, 125 g ai/ha
  Plant response rating, Galium: 100
[4]; 16 g ai/ha
  Plant response rating, Kochia: 80
[4]; 31 g ai/ha
  Plant response rating, Kochia: 85
[4]; 62 g ai/ha
  Plant response rating, Kochia: 90
[4]; 125 g ai/ha
  Plant response rating, Kochia: 98
[5]; Postemergence, 16 g ai/ha
  Plant response rating, Lambsquarters: 75
[5]; Postemergence, 31 g ai/ha
  Plant response rating, Lambsquarters: 90
[5]; Postemergence, 62 g ai/ha
  Plant response rating, Lambsquarters: 95
[5]; Postemergence, 125 g ai/ha
  Plant response rating, Lambsquarters: 95
[5]; Preemergence, 31 g ai/ha
  Plant response rating, Lambsquarters: 75
[5]; Preemergence, 61 g ai/ha
  Plant response rating, Lambsquarters: 80
[5]; Preemergence, 62 g ai/ha
  Plant response rating, Lambsquarters: 100
[5]; Preemergence, 125 g ai/ha
  Plant response rating, Lambsquarters: 100
[6]; Postemergence, 16 g ai/ha
  Plant response rating, Morningglory: 100
[6]; Postemergence, 31 g ai/ha
  Plant response rating, Morningglory: 100
[6]; Postemergence, 62 g ai/ha
  Plant response rating, Morningglory: 100
[6]; Postemergence, 125 g ai/ha
  Plant response rating, Morningglory: 100
[6]; Preemergence, 31 g ai/ha
  Plant response rating, Morningglory: 85
[6]; Preemergence, 61 g ai/ha
  Plant response rating, Morningglory: 70
[6]; Preemergence, 62 g ai/ha
  Plant response rating, Morningglory: 95
[6]; Preemergence, 125 g ai/ha
  Plant response rating, Morningglory: 95
[7]; 16 g ai/ha
  Plant response rating, Oat, Wild: 35
[7]; 31 g ai/ha
  Plant response rating, Oat, Wild: 55
[7]; 62 g ai/ha
  Plant response rating, Oat, Wild: 70
[7]; 125 g ai/ha
  Plant response rating, Oat, Wild: 90
[8]; Postemergence, 16 g ai/ha
  Plant response rating, Soybean: 0
[8]; Postemergence, 31 g ai/ha
  Plant response rating, Soybean: 10
[8]; Postemergence, 62 g ai/ha
  Plant response rating, Soybean: 10
[8]; Postemergence, 125 g ai/ha
  Plant response rating, Soybean: 20
[8]; Preemergence, 31 g ai/ha
  Plant response rating, Soybean: 0
[8]; Preemergence, 61 g ai/ha
  Plant response rating, Soybean: 0
[8]; Preemergence, 62 g ai/ha
  Plant response rating, Soybean: 20
[8]; Preemergence, 125 g ai/ha
  Plant response rating, Soybean: 60
[9]; Postemergence, 16 g ai/ha
  Plant response rating, Waterhemp: 75
[9]; Postemergence, 31 g ai/ha
  Plant response rating, Waterhemp: 70
[9]; Postemergence, 62 g ai/ha
  Plant response rating, Waterhemp: 95
[9]; Postemergence, 125 g ai/ha
  Plant response rating, Waterhemp: 95
[9]; Preemergence, 31 g ai/ha
  Plant response rating, Waterhemp: 100
[9]; Preemergence, 61 g ai/ha
  Plant response rating, Waterhemp: 65
[9]; Preemergence, 62 g ai/ha
  Plant response rating, Waterhemp: 100
[9]; Preemergence, 125 g ai/ha
  Plant response rating, Waterhemp: 100
[10]; 16 g ai/ha
  Plant response rating, Chickweed: 95
[10]; 31 g ai/ha
  Plant response rating, Chickweed: 95
[10]; 62 g ai/ha
  Plant response rating, Chickweed: 95
[10]; 125 g ai/ha
  Plant response rating, Chickweed: 98
